Experimental data as given in US10131652B2, “Pyrimidinyloxy benzene derivatives as herbicides” (E. I. DU PONT DE NEMOURS AND COMPANY, priority 2014, dated 2018).

Assays:
Assay type in all cases: in vivo
[1] = system: galium (catchweed bedstraw, Galium aparine); assay: Test B postemergence plant response
Outline: (§1)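 Values are visual control ratings (0 to 100) recorded approximately 10 days after postemergence application to greenhouse-grown plants of 2 to 10 cm, one- to two-leaf stage, each judged against untreated controls.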

[2] = system: blackgrass (Alopecurus myosuroides); assay: Test B postemergence plant response
Outline: as §1

[3] = system: ragweed (common ragweed, Ambrosia elatior); assay: Test B pre-/postemergence plant response
Outline: (§2)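 Evaluation is visual, about 10 days after application, rating injury from 0 (none) to 100 (complete control) relative to untreated controls. Application was a preemergence soil spray on seeded pots or a postemergence spray on one- to two-leaf plants.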

corn (Zea mays) = assay: Test B pre-/postemergence plant response
Outline: as §2

[4] = system: Italian ryegrass (Lolium multiflorum); assay: Test B pre-/postemergence plant response
Outline: as §2

[5] = system: barnyardgrass (Echinochloa crus-galli); assay: Test B pre-/postemergence plant response
Outline: as §2

[6] = system: giant foxtail (Setaria faberii); assay: Test B pre-/postemergence plant response
Outline: as §2

[7] = system: pigweed (Amaranthus retroflexus); assay: Test B pre-/postemergence plant response
Outline: as §2

kochia (Kochia scoparia) = assay: Test B pre-/postemergence plant response
Outline: as §2

[8] = system: wheat (Triticum aestivum); assay: Test B pre-/postemergence plant response
Outline: as §2

rice (Oryza sativa) = assay: Test C flooded paddy test plant response; conditions: Flood, 250 g ai/ha; scale of 0 to 100 where 0 is no effect and 100 is complete control; 13 to 15 days
Outline: (§3)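 Visual injury ratings (0, no effect; 100, complete control) were assigned after 13 to 15 days in a greenhouse, comparing treated plants with controls. Compounds had been added straight into paddy water over 2-leaf-stage plants flooded to 3 cm.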

[9] = system: small-flower umbrella sedge (Cyperus difformis); assay: Test C flooded paddy test plant response; conditions: Flood, 250 g ai/ha; scale of 0 to 100 where 0 is no effect and 100 is complete control; 13 to 15 days
Outline: as §3

[10] = system: barnyardgrass (Echinochloa crus-galli); assay: Test C flooded paddy test plant response; conditions: Flood, 250 g ai/ha; scale of 0 to 100 where 0 is no effect and 100 is complete control; 13 to 15 days
Outline: as §3

[11] = system: ducksalad (Heteranthera limosa); assay: Test C flooded paddy test plant response; conditions: Flood, 250 g ai/ha; scale of 0 to 100 where 0 is no effect and 100 is complete control; 13 to 15 days
Outline: as §3

[12] = 125 g ai/ha, postemergence, 0 to 100 scale, 0 no effect, 100 complete control
[13] = Postemergence, 31 g ai/ha, 0 to 100 scale (0 no effect, 100 complete control)
[14] = 31 g ai/ha, Preemergence, 0 to 100 scale where 0 is no effect and 100 is complete control
[15] = Preemergence, 125 g ai/ha, 0 to 100 scale (0 no effect, 100 complete control)
[16] = Postemergence, 500 g ai/ha, 0 to 100 scale (0 no effect, 100 complete control)
[17] = Preemergence, 500 g ai/ha, 0 to 100 scale where 0 is no effect and 100 is complete control
[18] = Postemergence, 1000 g ai/ha, 0 to 100 scale (0 no effect, 100 complete control)
[19] = Preemergence, 1000 g ai/ha, 0 to 100 scale (0 no effect, 100 complete control)

Cc1ccnc(-c2ccccc2Oc2ncc(Cl)cn2)c1 [Compound 187]
Plant response rating, Galium [1, 12]: 0
Plant response rating, Galium [1, 13]: 0
Plant response rating, Blackgrass [2, 12]: 0
Plant response rating, Blackgrass [2, 13]: 0
Plant response rating, Ragweed [3, 14]: 0
Plant response rating, Ragweed [3, 12]: 0
Plant response rating, Ragweed [3, 13]: 0
Ragweed plant response rating [3, 15]: 0
Plant response rating, Corn (corn (Zea mays); [12]): 0
Plant response rating, Corn (corn (Zea mays); [13]): 0
Plant response rating, Ryegrass, Italian [4, 14]: 0
Plant response rating, Ryegrass, Italian [4, 12]: 0
Plant response rating, Ryegrass, Italian [4, 13]: 0
Ryegrass, Italian plant response rating [4, 15]: 0
Plant response rating, Barnyardgrass [5, 14]: 0
Plant response rating, Barnyardgrass [5, 12]: 0
Plant response rating, Barnyardgrass [5, 13]: 0
Barnyardgrass plant response rating [5, 15]: 0
Plant response rating, Foxtail, Giant [6, 14]: 0
Plant response rating, Foxtail, Giant [6, 12]: 0
Plant response rating, Foxtail, Giant [6, 13]: 0
Foxtail, Giant plant response rating [6, 15]: 0
Plant response rating, Pigweed [7, 14]: 0
Plant response rating, Pigweed [7, 12]: 0
Plant response rating, Pigweed [7, 13]: 0
Pigweed plant response rating [7, 15]: 0
Plant response rating, Kochia (kochia (Kochia scoparia); [14]): 0
Plant response rating, Kochia (kochia (Kochia scoparia); [12]): 0
Plant response rating, Kochia (kochia (Kochia scoparia); [13]): 0
Kochia plant response rating (kochia (Kochia scoparia); [15]): 0
Plant response rating, Wheat [8, 12]: 0
Plant response rating, Wheat [8, 13]: 0
Rice plant response rating (rice (Oryza sativa)): 0
Sedge, Umbrella plant response rating [9]: 0
Barnyardgrass plant response rating [10]: 0
Ducksalad plant response rating [11]: 50

N#Cc1ccnc(-c2ccccc2Oc2ncc(Cl)cn2)c1 [Compound 188]
Plant response rating, Galium [1, 12]: 50
Plant response rating, Galium [1, 13]: 0
Plant response rating, Blackgrass [2, 12]: 20
Plant response rating, Blackgrass [2, 13]: 0
Plant response rating, Ragweed [3, 14]: 0
Plant response rating, Ragweed [3, 12]: 20
Plant response rating, Ragweed [3, 13]: 0
Ragweed plant response rating [3, 15]: 0
Plant response rating, Corn (corn (Zea mays); [12]): 30
Plant response rating, Corn (corn (Zea mays); [13]): 0
Plant response rating, Ryegrass, Italian [4, 14]: 0
Plant response rating, Ryegrass, Italian [4, 12]: 0
Plant response rating, Ryegrass, Italian [4, 13]: 0
Ryegrass, Italian plant response rating [4, 15]: 0
Plant response rating, Barnyardgrass [5, 14]: 0
Plant response rating, Barnyardgrass [5, 12]: 20
Plant response rating, Barnyardgrass [5, 13]: 0
Barnyardgrass plant response rating [5, 15]: 20
Plant response rating, Foxtail, Giant [6, 14]: 0
Plant response rating, Foxtail, Giant [6, 12]: 20
Plant response rating, Foxtail, Giant [6, 13]: 0
Foxtail, Giant plant response rating [6, 15]: 40
Plant response rating, Pigweed [7, 14]: 0
Plant response rating, Pigweed [7, 12]: 60
Plant response rating, Pigweed [7, 13]: 0
Pigweed plant response rating [7, 15]: 100
Plant response rating, Kochia (kochia (Kochia scoparia); [14]): 0
Plant response rating, Kochia (kochia (Kochia scoparia); [12]): 90
Plant response rating, Kochia (kochia (Kochia scoparia); [13]): 0
Kochia plant response rating (kochia (Kochia scoparia); [15]): 30
Plant response rating, Wheat [8, 12]: 20
Plant response rating, Wheat [8, 13]: 0
Rice plant response rating (rice (Oryza sativa)): 0
Sedge, Umbrella plant response rating [9]: 0
Barnyardgrass plant response rating [10]: 0
Ducksalad plant response rating [11]: 30

Clc1cnc(Oc2ccccc2-c2cc(Cl)cnn2)nc1 [Compound 189]
Plant response rating, Galium [1, 12]: 0
Plant response rating, Galium [1, 13]: 0
Plant response rating, Blackgrass [2, 12]: 0
Plant response rating, Blackgrass [2, 13]: 0
Plant response rating, Ragweed [3, 14]: 0
Plant response rating, Ragweed [3, 12]: 0
Plant response rating, Ragweed [3, 13]: 0
Ragweed plant response rating [3, 15]: 0
Plant response rating, Corn (corn (Zea mays); [12]): 0
Plant response rating, Corn (corn (Zea mays); [13]): 0
Plant response rating, Ryegrass, Italian [4, 14]: 0
Plant response rating, Ryegrass, Italian [4, 12]: 0
Plant response rating, Ryegrass, Italian [4, 13]: 0
Ryegrass, Italian plant response rating [4, 15]: 0
Plant response rating, Barnyardgrass [5, 14]: 0
Plant response rating, Barnyardgrass [5, 12]: 0
Plant response rating, Barnyardgrass [5, 13]: 0
Barnyardgrass plant response rating [5, 15]: 0
Plant response rating, Foxtail, Giant [6, 14]: 0
Plant response rating, Foxtail, Giant [6, 12]: 0
Plant response rating, Foxtail, Giant [6, 13]: 0
Foxtail, Giant plant response rating [6, 15]: 0
Plant response rating, Pigweed [7, 14]: 0
Plant response rating, Pigweed [7, 12]: 0
Plant response rating, Pigweed [7, 13]: 0
Pigweed plant response rating [7, 15]: 0
Plant response rating, Kochia (kochia (Kochia scoparia); [14]): 0
Plant response rating, Kochia (kochia (Kochia scoparia); [12]): 0
Plant response rating, Kochia (kochia (Kochia scoparia); [13]): 0
Kochia plant response rating (kochia (Kochia scoparia); [15]): 0
Plant response rating, Wheat [8, 12]: 0
Plant response rating, Wheat [8, 13]: 0
Rice plant response rating (rice (Oryza sativa)): 0
Sedge, Umbrella plant response rating [9]: 0
Barnyardgrass plant response rating [10]: 0
Ducksalad plant response rating [11]: 0

Clc1cnc(Oc2ccccc2-c2cc(Cl)ncn2)nc1 [Compound 190]
Plant response rating, Galium [1, 12]: 0
Plant response rating, Galium [1, 16]: 10
Plant response rating, Blackgrass [2, 12]: 0
Plant response rating, Blackgrass [2, 16]: 0
Plant response rating, Ragweed [3, 12]: 10
Plant response rating, Ragweed [3, 16]: 10
Ragweed plant response rating [3, 15]: 0
Plant response rating, Ragweed [3, 17]: 0
Plant response rating, Corn (corn (Zea mays); [12]): 0
Plant response rating, Corn (corn (Zea mays); [16]): 0
Plant response rating, Ryegrass, Italian [4, 12]: 0
Plant response rating, Ryegrass, Italian [4, 16]: 0
Ryegrass, Italian plant response rating [4, 15]: 0
Plant response rating, Ryegrass, Italian [4, 17]: 0
Plant response rating, Barnyardgrass [5, 12]: 0
Plant response rating, Barnyardgrass [5, 16]: 0
Barnyardgrass plant response rating [5, 15]: 0
Plant response rating, Barnyardgrass [5, 17]: 0
Plant response rating, Foxtail, Giant [6, 12]: 0
Plant response rating, Foxtail, Giant [6, 16]: 0
Foxtail, Giant plant response rating [6, 15]: 0
Plant response rating, Foxtail, Giant [6, 17]: 10
Plant response rating, Pigweed [7, 12]: 0
Plant response rating, Pigweed [7, 16]: 20
Pigweed plant response rating [7, 15]: 0
Plant response rating, Pigweed [7, 17]: 10
Plant response rating, Kochia (kochia (Kochia scoparia); [12]): 0
Plant response rating, Kochia (kochia (Kochia scoparia); [16]): 0
Kochia plant response rating (kochia (Kochia scoparia); [15]): 0
Plant response rating, Kochia (kochia (Kochia scoparia); [17]): 0
Plant response rating, Wheat [8, 12]: 0
Plant response rating, Wheat [8, 16]: 0
Rice plant response rating (rice (Oryza sativa)): 0
Sedge, Umbrella plant response rating [9]: 0
Barnyardgrass plant response rating [10]: 0
Ducksalad plant response rating [11]: 0

Fc1cnc(Oc2ccccc2-c2cc(Cl)sn2)nc1 [Compound 193]
Plant response rating, Galium [1, 18]: 100
Plant response rating, Blackgrass [2, 18]: 90
Plant response rating, Ragweed [3, 18]: 90
Plant response rating, Ragweed [3, 19]: 80
Plant response rating, Corn (corn (Zea mays); [18]): 10
Plant response rating, Ryegrass, Italian [4, 18]: 30
Plant response rating, Ryegrass, Italian [4, 19]: 0
Plant response rating, Barnyardgrass [5, 18]: 90
Plant response rating, Barnyardgrass [5, 19]: 100
Plant response rating, Foxtail, Giant [6, 18]: 90
Plant response rating, Foxtail, Giant [6, 19]: 100
Plant response rating, Pigweed [7, 18]: 100
Plant response rating, Pigweed [7, 19]: 100
Plant response rating, Kochia (kochia (Kochia scoparia); [18]): 100
Plant response rating, Kochia (kochia (Kochia scoparia); [19]): 100
Plant response rating, Wheat [8, 18]: 20
Rice plant response rating (rice (Oryza sativa)): 0
Sedge, Umbrella plant response rating [9]: 0
Barnyardgrass plant response rating [10]: 0
Ducksalad plant response rating [11]: 65

Cc1cnc(Oc2ccccc2-c2cc(Cl)sn2)nc1 [Compound 194]
Plant response rating, Galium [1, 18]: 100
Plant response rating, Blackgrass [2, 18]: 90
Plant response rating, Ragweed [3, 18]: 80
Plant response rating, Ragweed [3, 19]: 30
Plant response rating, Corn (corn (Zea mays); [18]): 60
Plant response rating, Ryegrass, Italian [4, 18]: 50
Plant response rating, Ryegrass, Italian [4, 19]: 50
Plant response rating, Barnyardgrass [5, 18]: 100
Plant response rating, Barnyardgrass [5, 19]: 100
Plant response rating, Foxtail, Giant [6, 18]: 90
Plant response rating, Foxtail, Giant [6, 19]: 100
Plant response rating, Pigweed [7, 18]: 90
Plant response rating, Pigweed [7, 19]: 100
Plant response rating, Kochia (kochia (Kochia scoparia); [18]): 100
Plant response rating, Kochia (kochia (Kochia scoparia); [19]): 100
Plant response rating, Wheat [8, 18]: 20
Rice plant response rating (rice (Oryza sativa)): 0
Sedge, Umbrella plant response rating [9]: 0
Barnyardgrass plant response rating [10]: 0
Ducksalad plant response rating [11]: 80
